These results are taken from patent US11040954B1, “CXCR3 receptor agonists” (RECEPTOS LLC, priority 2016, dated 2021).

Each structure is given as a SMILES string.

This assay deals with T1, CXCR3 (Homo sapiens, UniProt P49682).
T1 construct: host or cells: CHO-K1 (cAMP Hunter CHOK1 CXCR3 Gi cell line)
T1 sequence (P49682 1-368): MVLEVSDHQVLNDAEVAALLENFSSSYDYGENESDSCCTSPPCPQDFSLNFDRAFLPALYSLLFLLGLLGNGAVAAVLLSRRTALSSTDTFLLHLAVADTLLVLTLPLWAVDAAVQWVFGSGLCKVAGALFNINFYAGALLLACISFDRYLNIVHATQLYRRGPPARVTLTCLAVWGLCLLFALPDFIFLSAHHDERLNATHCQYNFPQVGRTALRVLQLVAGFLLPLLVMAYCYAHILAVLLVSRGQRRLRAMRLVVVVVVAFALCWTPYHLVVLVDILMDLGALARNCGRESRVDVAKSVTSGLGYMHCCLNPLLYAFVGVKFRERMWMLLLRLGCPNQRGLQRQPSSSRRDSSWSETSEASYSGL
Nature of the assay: CXCR3 cAMP agonist assay (cAMP Hunter CHOK1 CXCR3 Gi cell line, forskolin-stimulated, HitHunter cAMP detection). In kind it is cell-based. The following applies: cAMP Hunter CHOK1 CXCR3 Gi cells, 20 μM forskolin, 30 minutes; read-out: Activity (CXCR3 cAMP agonist assay compound EC50). As for the experimental part:
The cAMP Hunter™ CHOK1 CXCR3 Gi cell line was purchased from DiscoveRx. Cells were seeded into a 96-well white assay plate at 50,000 cells/well/94 μl assay buffer (Hank's Buffered Saline Solution, 10 mM HEPES, 0.1% fatty acid-free BSA, pH 7.4) and immediately assayed in suspension. Forskolin was added to 20 μM (5 μl of 400 μM stock) simultaneously with a 12-point dose response curve of compound at 0-10 μM (1 μl of 100× stock in 100% DMSO), and cells were incubated for 30 minutes. A cAMP standard curve is run as an assay control. A CXCL11 dose response was included to determine maximum efficacy. Direct detection of cAMP was carried out using the DiscoveRx HitHunter cAMP kit according to manufacturer's instructions, and luminescence was read using a SpectraMax M5 plate reader.
In general, EC50 refers to the concentration that produces a half-maximal response. In the case of `Cc1cc(NC(=O)[C@H](CCN)NC(=O)[C@@H]2Cc3ccccc3CN2C(=O)CCC(=O)N2CC[C@H](N(C)C)C2)ccc1Cl` [Compound 12-49], the EC50 was less than 50 nM.

`CN(C)C(=N)NCCC[C@H](NC(=O)[C@@H]1Cc2ccccc2CN1C(=O)CCC(=O)c1ccccc1)C(=O)Nc1ccc(Cl)c(Cl)c1` [Compound 5-1, (S)—N—((S)-1-((3,4-dichlorophenyl)amino)-5-(3,3-dimethylguanidino)-1-oxopentan-2-yl)-2-(4-oxo-4-phenylbutanoyl)-1,2,3,4-tetrahydroisoquinoline-3-carboxamide]: the EC50 is less than 50 nM.

For the molecule `Cc1cc(NC(=O)[C@H](CCN)NC(=O)[C@@H]2Cc3ccccc3CN2C(=O)CCC(=O)N2CCCCC2C#N)ccc1Cl` (stereo partly shown) [Compound 12-84], the EC50 was less than 50 nM.

For `Cc1nc2ccc(NC(=O)[C@H](CCN)NC(=O)[C@@H]3Cc4ccccc4CN3C(=O)CCC(=O)c3ccccc3)cc2s1` [Compound 2-64], the EC50 lay in the range of 250 to 500 nM.

Regarding `Cc1cc(NC(=O)[C@H](CCN)NC(=O)[C@@H]2Cc3ccccc3CN2C(=O)CCC(=O)N2C[C@H](C)C[C@H](C)C2)ccc1Cl` [Compound 12-39], the EC50 was less than 50 nM.

Take `Cc1cc(NC(=O)[C@H](CCN)NC(=O)[C@@H]2Cc3ccccc3CN2C(=O)CCC(=O)NCC2CCCCC2)ccc1Cl` [Compound 12-3]: the concentration for a half-maximal effect (EC50) was 50 to 250 nM.

As for `COc1cc(C)ccc1NC(=O)[C@H](CCN)NC(=O)[C@@H]1Cc2ccccc2CN1C(=O)CCC(=O)c1ccccc1` [Compound 1-37], the half-maximal effective concentration (EC50) was in the range of 50 to 250 nM.

Regarding `CC1(C)CCCCN1C(=O)CCC(=O)N1Cc2ccccc2C[C@H]1C(=O)N[C@H](CCN1CCC(O)CC1)C(=O)Nc1ccc(Cl)c(Cl)c1F` [Compound 26-2], the 50% effective concentration (EC50) is less than 50 nM.

In the case of `NC(=O)NCCCC[C@H](NC(=O)[C@@H]1Cc2ccccc2CN1C(=O)CCC(=O)c1ccccc1)C(=O)Nc1ccc(Cl)c(Cl)c1` [Compound 3-6], the EC50 lay in the range of 250 to 500 nM.

`Cc1cc(NC(=O)[C@H](CCN)NC(=O)[C@@H]2Cc3ccccc3CN2C(=O)CCC(=O)N2CCC[C@@H]2CF)ccc1Cl` [Compound 12-144]: the EC50 is less than 50 nM.

As for `NCC[C@H](NC(=O)[C@@H]1Cc2ccccc2CN1C(=O)CCC(=O)c1ccccc1)C(=O)Nc1cc(Cl)ccc1C(F)(F)F` [Compound 14-14], the EC50 fell in the range of 50 to 250 nM.

`Cc1cc(NC(=O)C2(NC(=O)[C@@H]3Cc4ccccc4CN3C(=O)CCC(=O)c3ccccc3)CCNCC2)c(Cl)cc1Cl` [Compound 11-6]: the EC50 is less than 50 nM.

Turning to `NCC[C@H](NC(=O)[C@@H]1Cc2ccccc2CN1C(=O)CCC(=O)c1ccccc1)C(=O)Nc1ccccc1C(F)(F)F` [Compound 14-15], the EC50 was 250 to 500 nM.

Turning to `N#Cc1c(NC(=O)[C@H](CCN)NC(=O)[C@@H]2Cc3ccccc3CN2C(=O)CCC(=O)c2ccccc2)ccc(Cl)c1Cl` [Compound 14-26], the half-maximal effective concentration (EC50) was in the range of 50 to 250 nM.

With `CC(C)C1CCCN1C(=O)CCC(=O)N1Cc2ccccc2C[C@H]1C(=O)N[C@@H](CCN)C(=O)Nc1ccc(Cl)c(Cl)c1F` (stereo partly shown) [Compound 15-10], the concentration for a half-maximal effect (EC50) is less than 50 nM.

For `Cc1cc(NC(=O)[C@H](CCN)NC(=O)[C@@H]2Cc3ccccc3CN2C(=O)CCC(=O)N2CCCN(C)CC2)ccc1Cl` [Compound 12-34], the concentration for a half-maximal effect (EC50) was 50 to 250 nM.

For the molecule `NCC[C@H](NC(=O)[C@@H]1Cc2ccccc2CN1C(=O)CCC(=O)c1ccccc1)C(=O)Nc1c(F)cccc1Cl` [Compound 14-9], the EC50 lay within 250 to 500 nM.

`Cc1cc(NC(=O)C(CC2CC[N+](C)(C)CC2)NC(=O)[C@@H]2Cc3ccccc3CN2C(=O)CCC(=O)c2ccccc2)ccc1Cl` (mixture of isomers) [Compound 6-2, 4-((S)-3-((4-chloro-3-methylphenyl)amino)-3-oxo-2-((S)-2-(4-oxo-4-phenylbutanoyl)-1,2,3,4-tetrahydroisoquinoline-3-carboxamido)propyl)-1,1-dimethylpiperidin-1-ium iodide]: the EC50 was in the range of 50 to 250 nM.

As to `CC(C)(C)CNC(=O)CCC(=O)N1Cc2ccccc2C[C@H]1C(=O)NC1(C(=O)Nc2ccc(Cl)c(Cl)c2F)CCNCC1` [Compound 12-129], the concentration giving a half-maximal response (EC50) lay within 250 to 500 nM.

Turning to `CN(C(=O)CCC(=O)N1Cc2ccccc2C[C@H]1C(=O)N[C@@H](CCN)C(=O)Nc1ccc(Cl)c(Cl)c1F)C1CCC1` [Compound 15-37], the EC50 fell in the range of 50 to 250 nM.

`CC1(C)CCCN1C(=O)CCC(=O)N1Cc2cc(F)ccc2C[C@H]1C(=O)N[C@@H](CCN)C(=O)Nc1ccc(Cl)c(Cl)c1F` [Compound 15-61]: the 50% effective concentration (EC50) is less than 50 nM.

As to `CC1(C)CCCN(C(=O)CCC(=O)N2Cc3ccccc3C[C@H]2C(=O)NC2(C(=O)Nc3ccc(Cl)c(Cl)c3F)CCNCC2)C1` [Compound 12-130], the EC50 was less than 50 nM.

`NCC[C@H](NC(=O)[C@@H]1Cc2ccccc2CN1C(=O)CCC(=O)N1CCc2ccccc2C1)C(=O)Nc1ccc(Cl)c(Cl)c1F` [Compound 15-8]: the EC50 is less than 50 nM.

Turning to `CN(CC(C)(C)C)C(=O)CCC(=O)N1Cc2ccccc2C[C@H]1C(=O)NC1(C(=O)Nc2ccc(Cl)c(Cl)c2F)CCNCC1` [Compound 12-137], the EC50 was in the range of 50 to 250 nM.

Turning to `COc1c(NC(=O)[C@H](CCN)NC(=O)[C@@H]2Cc3ccccc3CN2C(=O)CCC(=O)c2ccccc2)ccc(C)c1C` [Compound 2-61], the half-maximal effective concentration (EC50) is greater than 500 nM.

With `Cc1cc(NC(=O)[C@H](CCC(N)=O)NC(=O)[C@@H]2Cc3ccccc3CN2C(=O)CCC(=O)c2ccccc2)ccc1Cl` [Compound 3-13], the half-maximal effective concentration (EC50) was 50 to 250 nM.

Consider `CC1(C)COCCN1C(=O)CCC(=O)N1Cc2ccccc2C[C@H]1C(=O)NC1(C(=O)Nc2ccc(Cl)c(Cl)c2F)CCNCC1` [Compound 12-127], for which the EC50 was 50 to 250 nM.

With `NCCCC[C@H](NC(=O)[C@@H]1Cc2ccccc2CN1C(=O)CCC(=O)c1ccccc1)C(=O)Nc1ccc(F)c(F)c1` [Compound 1-21], the EC50 is greater than 500 nM.

Take `Cc1cc(NC(=O)[C@H](CCN)NC(=O)[C@@H]2Cc3ccccc3CN2C(=O)CCC(=O)N2CCC[C@H]2CF)ccc1Cl` [Compound 12-139]: the EC50 was less than 50 nM.

`Cc1cc(OC(F)(F)F)c(NC(=O)[C@H](CCN)NC(=O)[C@@H]2Cc3ccccc3CN2C(=O)CCC(=O)c2ccccc2)cc1Cl` [Compound 14-24]: the half-maximal effective concentration (EC50) is less than 50 nM.

Take `Cc1cc(NC(=O)[C@H](CCN2CCOCC2)NC(=O)[C@@H]2Cc3ccccc3CN2C(=O)CCC(=O)c2ccccc2)ccc1Cl` [Compound 5-4]: the EC50 was in the range of 50 to 250 nM.

For `CC[C@H]1CCCN1C(=O)CCC(=O)N1Cc2ccccc2C[C@H]1C(=O)N[C@@H](CCN)C(=O)Nc1ccc(Cl)c(C)c1` [Compound 12-111], the 50% effective concentration (EC50) was less than 50 nM.

With `Cc1cc(NC(=O)[C@H](CCN)NC(=O)[C@@H]2Cc3ccccc3CN2C(=O)CCC(=O)N2CCCC23CCC3)ncc1Cl` [Compound 12-156], the EC50 was less than 50 nM.

Take `CC(C)C1CCCCN1C(=O)CCC(=O)N1Cc2ccccc2C[C@H]1C(=O)N[C@@H](CCN)C(=O)Nc1ccc(Cl)c(Cl)c1F` (stereo partly shown) [Compound 15-21]: the concentration giving a half-maximal response (EC50) is 50 to 250 nM.

As to `COCC1CCCCN1C(=O)CCC(=O)N1Cc2ccccc2C[C@H]1C(=O)N[C@@H](CCN)C(=O)Nc1ccc(Cl)c(Cl)c1F` (stereo partly shown) [Compound 15-16], the 50% effective concentration (EC50) is less than 50 nM.

As for `CN(CCC(C)(C)C)C(=O)CCC(=O)N1Cc2ccccc2C[C@H]1C(=O)N[C@@H](CCN)C(=O)Nc1ccc(Cl)c(Cl)c1F` [Compound 15-44], the 50% effective concentration (EC50) was less than 50 nM.

`COc1cc(C)c(Cl)cc1NC(=O)[C@H](CCN)NC(=O)[C@@H]1Cc2ccccc2CN1C(=O)CCC(=O)c1ccccc1` [Compound 1-36]: the 50% effective concentration (EC50) is less than 50 nM.
